ChEMBL document CHEMBL1130306, “Asymmetric synthesis of a conformationally constrained N-phosphonoalkyl dipeptide” (Bioorg Med Chem Lett, 1997)
Active and inactive are the calls of the source.

Tests used:
[1] = molecular target: 72 kDa type IV collagenase (Homo sapiens) (UniProt P08253); experiment: Inhibition of human recombinant gelatinase-A (MMP-2) at 10e-4 M (No significant activity)
[2] = molecular target: Matrix metalloproteinase-9 (Homo sapiens) (UniProt P14780); experiment: Inhibition of human recombinant Matrix metalloprotease-9 at 10e-4 M (No significant activity)
Matrix metalloproteinase-9 (Homo sapiens), sequence (P14780 whole entry): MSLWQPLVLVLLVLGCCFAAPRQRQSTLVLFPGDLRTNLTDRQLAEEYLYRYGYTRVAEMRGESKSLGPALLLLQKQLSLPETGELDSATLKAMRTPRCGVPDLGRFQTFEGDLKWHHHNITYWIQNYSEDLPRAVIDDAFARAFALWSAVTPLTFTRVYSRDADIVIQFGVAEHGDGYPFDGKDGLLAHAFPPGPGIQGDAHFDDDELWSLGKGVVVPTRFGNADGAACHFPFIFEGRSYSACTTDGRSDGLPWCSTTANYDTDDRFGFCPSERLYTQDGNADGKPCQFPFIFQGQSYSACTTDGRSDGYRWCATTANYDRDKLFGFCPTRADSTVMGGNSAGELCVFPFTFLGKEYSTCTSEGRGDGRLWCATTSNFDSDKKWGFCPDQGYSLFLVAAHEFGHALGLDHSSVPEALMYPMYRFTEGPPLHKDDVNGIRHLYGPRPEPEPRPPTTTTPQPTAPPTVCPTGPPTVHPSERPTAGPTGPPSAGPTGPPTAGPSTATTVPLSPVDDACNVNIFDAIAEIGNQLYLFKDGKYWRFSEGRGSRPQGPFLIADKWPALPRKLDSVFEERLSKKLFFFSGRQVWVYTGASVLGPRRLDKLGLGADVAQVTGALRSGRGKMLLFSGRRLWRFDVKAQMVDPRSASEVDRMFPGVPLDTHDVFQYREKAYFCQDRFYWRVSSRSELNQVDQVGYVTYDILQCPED

[3] = molecular target: T1, Interstitial collagenase (Homo sapiens) (UniProt P03956); experiment: Inhibition of human recombinant fibroblast collagenase (MMP-1) at 10e-4 M (No significant activity)
T1 sequence (whole entry): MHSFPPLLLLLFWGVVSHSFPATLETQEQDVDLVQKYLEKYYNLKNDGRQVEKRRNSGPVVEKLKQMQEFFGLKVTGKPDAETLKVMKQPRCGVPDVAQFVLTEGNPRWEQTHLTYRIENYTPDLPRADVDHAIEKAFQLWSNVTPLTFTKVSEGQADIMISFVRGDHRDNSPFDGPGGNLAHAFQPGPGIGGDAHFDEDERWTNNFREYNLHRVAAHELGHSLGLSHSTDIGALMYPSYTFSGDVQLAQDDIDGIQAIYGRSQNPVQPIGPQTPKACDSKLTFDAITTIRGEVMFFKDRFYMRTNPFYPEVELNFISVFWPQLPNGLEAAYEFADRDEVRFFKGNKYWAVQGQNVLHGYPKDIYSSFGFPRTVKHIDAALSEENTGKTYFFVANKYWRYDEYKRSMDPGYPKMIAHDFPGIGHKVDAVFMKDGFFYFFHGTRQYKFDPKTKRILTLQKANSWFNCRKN

Measured: Activity

72 kDa type IV collagenase (Homo sapiens), sequence (P08253 110-660 limits assumed): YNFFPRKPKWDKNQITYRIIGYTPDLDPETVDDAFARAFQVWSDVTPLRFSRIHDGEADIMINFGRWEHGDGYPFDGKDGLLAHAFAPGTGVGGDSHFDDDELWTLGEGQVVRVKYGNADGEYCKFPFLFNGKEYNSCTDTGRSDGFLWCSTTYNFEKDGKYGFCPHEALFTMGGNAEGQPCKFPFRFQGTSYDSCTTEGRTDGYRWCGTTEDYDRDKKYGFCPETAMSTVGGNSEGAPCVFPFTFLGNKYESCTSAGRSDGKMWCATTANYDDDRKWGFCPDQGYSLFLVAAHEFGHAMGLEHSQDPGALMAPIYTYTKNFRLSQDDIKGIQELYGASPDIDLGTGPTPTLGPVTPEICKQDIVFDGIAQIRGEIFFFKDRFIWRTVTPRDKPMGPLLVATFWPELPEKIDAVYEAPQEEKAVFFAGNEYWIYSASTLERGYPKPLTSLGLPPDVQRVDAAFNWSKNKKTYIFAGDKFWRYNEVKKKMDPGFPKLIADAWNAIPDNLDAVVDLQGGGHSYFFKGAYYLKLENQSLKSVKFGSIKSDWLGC

CNC(=O)[C@H](Cc1c[nH]c2ccccc12)NC(=O)[C@@H]1CCC[C@@H](P(=O)(O)O)N1
inactive: all assays above

CNC(=O)[C@H](Cc1c[nH]c2ccccc12)NC(=O)[C@H]1CCC[C@@H](P(=O)(O)O)N1
inactive: all assays above
